What was measured:
Format in all cases: cell-based
[1] = test system: E. coli DH5α; experiment: Antibacterial activity: MIC and growth curve against E. coli DH5α in 96-well plate; conditions: minimal inhibitory concentration against E. coli DH5α; 96-well plate, 5×10^5 CFU/mL, 37° C., judged after 8 h
In short: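 Log-phase DH5α (OD600 about 0.5, 37° C, 185 rpm in LB) was pelleted, resuspended in fresh LB and seeded at 5×10^5 CFU/mL with recombinant protein at 50, 25 and 12.5 μg/mL (two-fold series), in triplicate. Plates were shaken at 175 rpm, 37° C, and OD600 was read every 30 min. MIC was the lowest concentration with no growth.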

[2] = test system: E. coli BL21; experiment: MIC against Gram-negative bacteria: E. coli BL21; conditions: for MIC against E. coli BL21 / MIC E. coli BL21: 96-well plate, 37° C., 10 h
In short: (§1)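 Broth microdilution, LB medium, final inoculum 5×10^5 CFU/mL from McFarland 0.5 cultures. Recombinant human EGF domain proteins tested in two-fold steps, n=3. MIC: lowest concentration, no growth.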

[3] = test system: Pseudomonas aeruginosa; experiment: MIC against Gram-negative bacteria: Pseudomonas aeruginosa; conditions: for MIC against P. aeruginosa: Pseudomonas aeruginosa; for MIC against P. aeruginosa / MIC P. aeruginosa: 96-well plate, 37° C., 10 h
In short: as §1

[4] = test system: Klebsiella pneumonia; experiment: MIC against Gram-negative bacteria: Klebsiella pneumonia; conditions: for MIC against K. pneumonia: Klebsiella pneumonia; for MIC against K. pneumonia / MIC K. pneumonia: 96-well plate, 37° C., 10 h
In short: as §1

[5] = test system: Enterobacter cloacae; experiment: MIC against Gram-negative bacteria: Enterobacter cloacae; conditions: for MIC against E. cloacae: Enterobacter cloacae; for MIC against E. cloacae / MIC E. cloacae: 96-well plate, 37° C., 10 h
In short: as §1

[6] = test system: Aeromonas hydrophila; experiment: MIC against Gram-negative bacteria: Aeromonas hydrophila; conditions: for MIC against A. hydrophila: Aeromonas hydrophila; for MIC against A. hydrophila / MIC A. hydrophila: 96-well plate, 37° C., 10 h
In short: as §1

[7] = test system: Citrobacter diversus; experiment: MIC against Gram-negative bacteria: Citrobacter diversus; conditions: for MIC against C. diversus: Citrobacter diversus; for MIC against C. diversus / MIC C. diversus: 96-well plate, 37° C., 10 h
In short: as §1

[8] = test system: Moraxella catarrhalis; experiment: MIC against Gram-negative bacteria: Moraxella catarrhalis; conditions: for MIC against M. catarrhalis: Moraxella catarrhalis; for MIC against M. catarrhalis / MIC M. catarrhalis: 96-well plate, 37° C., 10 h
In short: as §1

[9] = test system: Proteus mirabilis; experiment: MIC against Gram-negative bacteria: Proteus mirabilis; conditions: for MIC against P. mirabilis: Proteus mirabilis; for MIC against P. mirabilis / MIC P. mirabilis: 96-well plate, 37° C., 10 h
In short: as §1

[10] = test system: Proteus vulgaris; experiment: MIC against Gram-negative bacteria: Proteus vulgaris; conditions: for MIC against P. vulgaris: Proteus vulgaris; for MIC against P. vulgaris / MIC P. vulgaris: 96-well plate, 37° C., 10 h
In short: as §1

[11] = test system: Serratia marcescens; experiment: MIC against Gram-negative bacteria: Serratia marcescens; conditions: for MIC against S. marcescens: Serratia marcescens; for MIC against S. marcescens / MIC S. marcescens: 96-well plate, 37° C., 10 h
In short: as §1

Row | Substance | MIC [1] [µg/mL] | MIC against E. coli BL21 ([2]; E. coli BL21, 5×10^5 CFU/mL) [µg/mL] | MIC against P. aeruginosa ([3]; 5×10^5 CFU/mL) [µg/mL] | MIC against K. pneumonia ([4]; 5×10^5 CFU/mL) [µg/mL] | MIC against E. cloacae ([5]; 5×10^5 CFU/mL) [µg/mL] | MIC against A. hydrophila ([6]; 5×10^5 CFU/mL) [µg/mL] | MIC against C. diversus ([7]; 5×10^5 CFU/mL) [µg/mL] | MIC against M. catarrhalis ([8]; 5×10^5 CFU/mL) [µg/mL] | MIC against P. mirabilis ([9]; 5×10^5 CFU/mL) [µg/mL] | MIC against P. vulgaris ([10]; 5×10^5 CFU/mL) [µg/mL] | MIC against S. marcescens ([11]; 5×10^5 CFU/mL) [µg/mL] | MIC E. coli BL21 ([2]; 5×10^5 CFU/mL) [µg/mL] | MIC P. aeruginosa ([3]; 5×10^5 CFU/mL) [µg/mL] | MIC K. pneumonia ([4]; 5×10^5 CFU/mL) [µg/mL] | MIC E. cloacae ([5]; 5×10^5 CFU/mL) [µg/mL] | MIC A. hydrophila ([6]; 5×10^5 CFU/mL) [µg/mL] | MIC C. diversus ([7]; 5×10^5 CFU/mL) [µg/mL] | MIC M. catarrhalis ([8]; 5×10^5 CFU/mL) [µg/mL] | MIC P. mirabilis ([9]; 5×10^5 CFU/mL) [µg/mL] | MIC P. vulgaris ([10]; 5×10^5 CFU/mL) [µg/mL] | also measured
1 | PRT1273 (DVDECEREDNAGCVHDCVNIPGNYRCTCYDGFHLAHDGHNCL; listed as Homo sapiens) | 12.5 | 50 | 12.5 | 50 | 12.5 | 50 | 25 | 12.5 | 50 | 12.5 | 50 | – | – | – | – | – | – | – | – | – | –
2 | PRT716 (TEYTCEDNVNPCGDDAYCNQIKTSVFCRCKPGFQRNMKNRQCE; listed as Homo sapiens) | 25 | – | – | – | – | – | – | – | – | – | – | 50 | 25 | 12.5 | 25 | 50 | 25 | 12.5 | 25 | 50 | MIC S. marcescens ([11]; 5×10^5 CFU/mL): 12.5 µg/mL
3 | PRT1332 (FGPSCSSVCNCVHGVCNSGLDGDGTCECYSAYTGPKCD; listed as Homo sapiens) | 50 | 12.5 | 50 | 25 | 12.5 | 50 | 25 | 12.5 | 25 | 12.5 | 25 | – | – | – | – | – | – | – | – | – | –
4 | PRT670 (DVDECASRASCPTGLCLNTEGSFACSACENGYWVNEDGTACE; listed as Homo sapiens) | 25 | – | – | – | – | – | – | – | – | – | – | 12.5 | 25 | 12.5 | 12.5 | 12.5 | 25 | 12.5 | 25 | 12.5 | MIC S. marcescens ([11]; 5×10^5 CFU/mL): 25 µg/mL
5 | PRT765 (VRDKCALGSHGCQHICVSDGAASYHCDCYPGYTLNEDKKTCS; listed as Homo sapiens) | 12.5 | – | – | – | – | – | – | – | – | – | – | – | – | – | – | – | – | – | – | – | MIC (μg/mL) E. coli BL21 ([2]; E. coli BL21, 10 h cultivation at 37° C., 5×10^5 CFU/mL): 50 µg/mL; MIC (μg/mL) P. aeruginosa ([3]; P. aeruginosa, 10 h cultivation at 37° C., 5×10^5 CFU/mL): 12.5 µg/mL; MIC (μg/mL) K. pneumonia ([4]; K. pneumonia, 10 h cultivation at 37° C., 5×10^5 CFU/mL): 50 µg/mL; MIC (μg/mL) E. cloacae ([5]; E. cloacae, 10 h cultivation at 37° C., 5×10^5 CFU/mL): 12.5 µg/mL; MIC (μg/mL) A. hydrophila ([6]; A. hydrophila, 10 h cultivation at 37° C., 5×10^5 CFU/mL): 12.5 µg/mL; MIC (μg/mL) C. diversus ([7]; C. diversus, 10 h cultivation at 37° C., 5×10^5 CFU/mL): 12.5 µg/mL; MIC (μg/mL) M. catarrhalis ([8]; M. catarrhalis, 10 h cultivation at 37° C., 5×10^5 CFU/mL): 12.5 µg/mL; MIC (μg/mL) P. mirabilis ([9]; P. mirabilis, 10 h cultivation at 37° C., 5×10^5 CFU/mL): 12.5 µg/mL; MIC (μg/mL) P. vulgaris ([10]; P. vulgaris, 10 h cultivation at 37° C., 5×10^5 CFU/mL): 12.5 µg/mL; MIC (μg/mL) S. marcescens ([11]; S. marcescens, 10 h cultivation at 37° C., 5×10^5 CFU/mL): 12.5 µg/mL
6 | PRT1018 (DVDECETQGPPHCRNGGTCQNSAGSFHCVCVSGWGGTSCE; listed as Homo sapiens) | 25 | – | – | – | – | – | – | – | – | – | – | – | – | – | – | – | – | – | – | – | MIC ([2]; E. coli BL21, 10 h cultivation at 37° C.): 12.5 µg/mL; MIC ([3]; P. aeruginosa, 10 h cultivation at 37° C.): 50 µg/mL; MIC ([4]; K. pneumonia, 10 h cultivation at 37° C.): 12.5 µg/mL; MIC ([5]; E. cloacae, 10 h cultivation at 37° C.): 25 µg/mL; MIC ([6]; A. hydrophila, 10 h cultivation at 37° C.): 50 µg/mL; MIC ([7]; C. diversus, 10 h cultivation at 37° C.): 12.5 µg/mL; MIC ([8]; M. catarrhalis, 10 h cultivation at 37° C.): 50 µg/mL; MIC ([9]; P. mirabilis, 10 h cultivation at 37° C.): 12.5 µg/mL; MIC ([10]; P. vulgaris, 10 h cultivation at 37° C.): 50 µg/mL; MIC ([11]; S. marcescens, 10 h cultivation at 37° C.): 25 µg/mL

Source: patent US9833497B2, “Human originated EGF domain proteins and use of the same” (CHENGDU SOURCEBIO LIMITED-LIABILITY COMPANY, priority 2013, dated 2017)
